The values that follow come from patent US20250129021A1, “SMALL MOLECULE PROTEIN SYNTHESIS MODULATORS” (Interdict Bio, Inc., priority 2023, published 2025).

Bounds are passed on as bounds.

Common to all, as to format: biochemical
What all share (settings): HeLa S3 lysate, sfGFP/mCherry ratio, 2 hrs at 30° C.

The test system of one test is ALK. Briefly: In vitro transcription-translation (IVTT) assay, ALK reporter. The gist of the method:
(§1)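 Reporter: mCherry, P2A, then 3×FLAG-target peptide-sfGFP fusion, IRES-initiated; HeLa S3 lysate IVTT; cpd dilutions 30 μM−0.1 μM half-log in 100% DMSO (dilution-plate conc); DNA added last; 2 h, 30° C; PBS quench.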

The subject of another test is KRAS G12D. Kind of test: In vitro transcription-translation (IVTT) assay, KRAS G12D reporter. The text has this: All reporter constructs have been cloned into the pT7CFE1-CHis plasmid (ThermoFisher #88860) using Gibson assembly procedures (NEB #E2611L). The parental pT7CFE1-CHis plasmid contains an EMCV IRES at the 5′UTR for translation initiation, a multiple-cloning site (MCS) for gene insertion, an optional C-terminal His-epitope tag, and polyA sequence in the 3′UTR to regulate mRNA stability. All reporters are designed to be inserted at the MCS to include a red fluorescent protein (mCherry), P2A self-cleaving peptide which releases the preceding mCherry protein product, and a fusion open reading frame containing a 3×FLAG epitope, a peptide sequence of interest (TEST), and green fluorescent protein (sfGFP).
Construct Plasmid Preparation: All plasmids are isolated from MACH1 cells (ThermoFisher) grown overnight in ampicillin-containing luria broth, and purified using ZymoPure Express Plasmid Midiprep Kit (Zymo Research). Constructs are sequenced verified and diluted to a working concentration of 110 ng/μL.
HeLa S3 Lysate Preparation: HeLa S3 cell pellets are acquired from Ipracell/Ipratech (Belgium) and shipped as 4 mL frozen cell pellets on dry ice for storage at −80° C. until use. The procedure for lysate preparation is as follows. Prepare 1× Lysis Buffer, cold and stored on ice:
Each preparation takes 8 cell pellets (4 ml packed volume each, approximately 1.0×10^9 cells per pellet). Thaw cell pellets from −80° C. on ice for 90 mins. Lay pellets horizontally on top of the ice and rotate every 30 mins to ensure even thawing. Once thawed, add 4 mL of cold lysis buffer to each pellet, and using a serological pipet, gently pipet up and down to break up clumps. Incubate resuspended cells in ice for an additional 30 mins (plunged into ice). During 30 min incubation, rinse and RNase-zap (Ambion) glass dounces (use loose pestle “A”), gently dry and place on ice until needed. Prepare RNase-free Eppendorf tubes for spinning and for batch storage. Add batch labels to 1.5-1.7 mL RNase-free microcentrifuge tubes (labeling scheme below). Each batch will have an extra 1.5-1.7 mL RNase-free microcentrifuge tube for 40 μL of lysate, label the top of this tube (labeling scheme below). After 30 min incubation, transfer all 8 mL of cell pellet to dounce. Cell lysis is complete after douncing 100 times. Aliquot cell lysis into 1.5-1.7 mL temporary-microcentrifuge tubes. Place tubes in centrifuge with “fins” out, and spin at 1,200×g for 5 mins. After the first spin use a 1 mL pipet to resuspend each tube and repeat spin. This acts as an additional lysis step, is more vigorous and increases lysate yield. During second spin get liquid N2 and a fresh conical tube on ice. After spin is complete, transfer supernatant (lysate) from microcentrifuge tubes into the 50 mL conical tube and keep on ice. Repeat steps 10-14 for all other cell pellets until completed. Once all cell lysate has been transferred to the 50 mL conical tube pipet to mix so the solution is homogenous. Transfer 1 mL of lysate into batch-labeled microcentrifuge tubes and flash freeze in liquid nitrogen. Be sure to pipet up and down to mix throughout transfer step. Place all tubes in the […] for long-term storage.
In vitro transcription-translation assay setup: Each assay includes a master mix containing lysate and shared components, a 96-well plate containing compound titrations for testing, a 96-well DNA plate with reporter constructs to be tested, 96-well skirted PCR plates, and 96-well flat-bottom, black, fluorescent assay plates. […]

In a further test the test system is MYC. Kind of test: In vitro transcription-translation (IVTT) assay, MYC reporter. A digest of the protocol:
as §1

By IC50 is commonly meant the concentration that gives 50% inhibition. In the case of `COc1ccc(C[C@H]2NC[C@H](O)[C@H]2OC(=O)NCCOCCn2ccnc2)cc1` [V187628, (2R,3S,4S)-4-hydroxy-2-[(4-methoxyphenyl)methyl]pyrrolidin-3-yl N-{2-[2-(imidazol-1-yl)ethoxy]ethyl}carbamate; trifluoroacetic acid], the half-maximal inhibitory concentration (IC50) was less than 10 µM with ALK, 10 to 20 µM in the test with KRAS G12D and less than 10 µM in the test on MYC.

With `COc1ccc(C[C@H]2NC[C@H](O)[C@H]2OC(=O)Nc2nnc(C)s2)cc1` [V187553, (2R,3S,4S)-4-hydroxy-2-[(4-methoxyphenyl)methyl]pyrrolidin-3-yl N-(5-methyl-1,3,4-thiadiazol-2-yl)carbamate; trifluoroacetic acid], the concentration for half-maximal inhibition (IC50) with ALK, with KRAS G12D and in the test on MYC was more than 30 µM in each case.

On to `COc1ccc(CC2NCC(O)[C@H]2OC(=O)NCCN(Cc2ccccn2)Cc2ccccn2)cc1` (stereo in doubt) [V187537, (2S,3S,4R)-4-hydroxy-2-[(4-methoxyphenyl)methyl]pyrrolidin-3-yl N-{2-[bis(pyridin-2-ylmethyl)amino]ethyl}carbamate; trifluoroacetic acid], for which the values for the IC50 with ALK, in the test with KRAS G12D and in the test on MYC were less than 10 µM, 20 to 30 µM and less than 10 µM, respectively.

In the case of `COc1ccc(C[C@H]2NC[C@H](O)[C@H]2OC(=O)NCCCCCN(C)C)cc1` [V187638, (2R,3S,4S)-4-hydroxy-2-[(4-methoxyphenyl)methyl]pyrrolidin-3-yl N-[5-(dimethylamino)pentyl]carbamate], the half-inhibitory concentration (IC50) in the test with ALK is less than 10 µM; with KRAS G12D it was 10 to 20 µM; in the test with MYC, 10 to 20 µM.

Take `COc1ccc(C[C@H]2NC[C@H](O)[C@H]2OC(=O)NCC[C@H]2CN(CC3CCCO3)CCN2Cc2ccccc2)cc1` (stereo partly drawn) [V187345, (2R,3S,4S)-4-hydroxy-2-[(4-methoxyphenyl)methyl]pyrrolidin-3-yl N-{2-[(2S)-1-benzyl-4-(oxolan-2-ylmethyl)piperazin-2-yl]ethyl}carbamate]: the IC50 with ALK, in the test with KRAS G12D and in the test on MYC was more than 30 µM throughout.

Take `COc1ccc(C[C@H]2NC[C@H](O)[C@H]2OC(=O)NCC[C@H]2CN(CC3CC3)CCN2Cc2ccccc2)cc1` [V187344]: the IC50 with ALK, in the test on KRAS G12D and in the test with MYC was more than 30 µM throughout.

Take `COc1ccc(C[C@H]2NC[C@H](O)[C@H]2OC(=O)NCCN2CCC3(CC(O)C3)C2)cc1` (stereo partly drawn) [V187642, (2R,3S,4S)-4-hydroxy-2-[(4-methoxyphenyl)methyl]pyrrolidin-3-yl N-(2-{2-hydroxy-6-azaspiro[3.4]octan-6-yl}ethyl)carbamate]: the IC50 in the test with ALK, with KRAS G12D and with MYC was more than 30 µM throughout.

For `COc1ccc(C[C@H]2NC[C@H](O)[C@H]2OC(=O)N[C@@H]2CCNC2)cc1` [V187688, (2R,3S,4S)-4-hydroxy-2-(4-methoxybenzyl)pyrrolidin-3-yl ((R)-pyrrolidin-3-yl)carbamate], the IC50 in the test on ALK, in the test on KRAS G12D and in the test with MYC was more than 30 µM each time.

With `COc1ccc(C[C@H]2NC[C@H](O)[C@H]2OC(=O)NCCNc2c(N)c(=O)c2=O)cc1` [V187518, (2R,3S,4S)-4-hydroxy-2-[(4-methoxyphenyl)methyl]pyrrolidin-3-yl N-{2-[(2-amino-3,4-dioxocyclobut-1-en-1-yl)amino]ethyl}carbamate; trifluoroacetic acid], the results for the half-inhibitory concentration (IC50) in the test with ALK, in the test with KRAS G12D and in the test on MYC were 10 to 20 µM, more than 30 µM and more than 30 µM, respectively.

Turning to `COc1ccc(C[C@H]2NC[C@H](O)[C@H]2OC(=O)NCC[C@H]2CN(Cc3ccccc3)CCN2Cc2ccccc2)cc1` [V187315], the IC50 with ALK, in the test on KRAS G12D and with MYC was more than 30 µM in each case.
